# Data as given in ChEMBL document CHEMBL5244273, “Tuberculosis: An Overview of the Immunogenic Response, Disease Progression, and Medicinal Chemistry Efforts in the Last Decade toward the Development of Potential Drugs for Extensively Drug-Resistant Tuberculosis Strains” (J Med Chem, 2021).
# Legend:
# [1] = Cytotoxicity against Chinese hamster CHO-K1 cells assessed as inhibition of cell growth; format: toxicity, cell-based, Cricetulus griseus
# [2] = Selectivity index, ratio of IC50 for cytotoxicity against Chinese hamster CHO-K1 cells to MIC for antimycobacterial activity against Mycobacterium tuberculosis H37Rv; format: toxicity, cell-based; conditions: read-out: Selectivity Index
# [3] = test system: Mycobacterium tuberculosis; assay: Antimycobacterial activity against Mycobacterium tuberculosis H37Rv; format: functional
# Staphylococcus aureus = assay: Antibacterial activity against methicillin susceptible Staphylococcus aureus ATCC 29213; format: functional
# [4] = test system: Mycobacterium tuberculosis; assay: Antitubercular activity against Mycobacterium tuberculosis MDR-FJ05120 assessed as inhibition of bacterial growth by microplate alamar blue assay; format: functional
# [5] = test system: Mycobacterium tuberculosis; assay: Antitubercular activity against Mycobacterium tuberculosis STB-FJ05349 assessed as inhibition of bacterial growth by microplate alamar blue assay; format: functional
# [6] = test system: Mycobacterium tuberculosis; assay: Antitubercular activity against Mycobacterium tuberculosis H37Rv ATCC 27294 assessed as inhibition of bacterial growth by microplate alamar blue assay; format: functional
# [7] = test system: Mycobacterium tuberculosis; assay: Antitubercular activity against Mycobacterium tuberculosis STB-FJ05060 assessed as inhibition of bacterial growth by microplate alamar blue assay; format: functional
# [8] = test system: Mycobacterium tuberculosis; assay: Antitubercular activity against Mycobacterium tuberculosis XDR-FJ05195 assessed as inhibition of bacterial growth by microplate alamar blue assay; format: functional
# [9] = test system: Staphylococcus epidermidis; assay: Antibacterial activity against Staphylococcus epidermidis; format: functional
# Escherichia coli = assay: Antibacterial activity against ESBL negative Escherichia coli ATCC 25922; format: functional
# [10] = test system: Mycobacterium tuberculosis; assay: Antitubercular activity against Mycobacterium tuberculosis MDR-FJ05189 assessed as inhibition of bacterial growth by microplate alamar blue assay; format: functional
# [11] = test system: Mycobacterium tuberculosis; assay: Antitubercular activity against Mycobacterium tuberculosis H37Rv by resazurin microtitre assay; format: functional
# [12] = Cytotoxicity against African green monkey Vero cells; format: toxicity, cell-based, Chlorocebus sabaeus; conditions: African green monkey, Vero cells
# [13] = Cytotoxicity against HEK293T cells assessed as reduction in cell viability; format: toxicity, cell-based, HEK-293T; conditions: human
# [14] = test system: Mycobacterium tuberculosis; assay: Antimycobacterial activity against Mycobacterium tuberculosis H37Rv assessed as inhibition of bacterial growth incubated for 5 days by alamar blue assay; format: functional; conditions: 120 h, time 5 day
# [15] = Cytotoxicity against African green monkey Vero cells assessed as inhibition of cell growth incubated for 72 hrs by MTT assay; format: toxicity, cell-based, Chlorocebus sabaeus
# MCF7 = assay: Cytotoxicity against human MCF7 cells assessed as cell growth inhibition; format: functional
# [16] = Selectivity index, ratio of GI50 for cytotoxicity against human HeLa cells to MIC for antitubercular activity against active stage of Mycobacterium tuberculosis H37Ra; format: toxicity, cell-based; conditions: read-out: Selectivity Index
# [17] = Cytotoxicity against HUVEC cells assessed as cell growth inhibition; format: toxicity, cell-based; conditions: human
# [18] = Selectivity index, ratio of GI50 for cytotoxicity against human MCF7 cells to MIC for antitubercular activity against dormant stage of Mycobacterium tuberculosis H37Ra; format: toxicity, cell-based; conditions: read-out: Selectivity Index
# [19] = Selectivity index, ratio of GI50 for cytotoxicity against HUVEC cells to MIC for antitubercular activity against dormant stage of Mycobacterium tuberculosis H37Ra; format: toxicity, cell-based; conditions: human, read-out: Selectivity Index
# HeLa = assay: Cytotoxicity against human HeLa cells assessed as cell growth inhibition; format: functional
# [20] = Selectivity index, ratio of GI50 for cytotoxicity against human MCF7 cells to MIC for antitubercular activity against active stage of Mycobacterium tuberculosis H37Ra; format: toxicity, cell-based; conditions: read-out: Selectivity Index
# [21] = Selectivity index, ratio of GI50 for cytotoxicity against human HeLa cells to MIC for antitubercular activity against dormant stage of Mycobacterium tuberculosis H37Ra; format: toxicity, cell-based; conditions: read-out: Selectivity Index
# [22] = Selectivity index, ratio of GI50 for cytotoxicity against HUVEC cells to MIC for antitubercular activity against active stage of Mycobacterium tuberculosis H37Ra; format: toxicity, cell-based; conditions: human, read-out: Selectivity Index
# [23] = test system: Mycobacterium tuberculosis; assay: Antitubercular activity against dormant stage of Mycobacterium tuberculosis H37Ra; format: functional
# [24] = test system: Mycobacterium tuberculosis; assay: Antitubercular activity against active stage of Mycobacterium tuberculosis H37Ra; format: functional
# [25] = test system: Mycobacterium tuberculosis; assay: Antimycobacterial activity against Mycobacterium tuberculosis H37Rv […]; format: functional
smiles,measurement,setting,value
S=c1[nH]nc(-c2ccccc2)o1,IC50,[1],33.3 µg/mL
same,selectivity ratio,[2],15.1
same,MIC,[3],2.2 µg/mL
O=C(Nc1nc(-c2ccccn2)cs1)c1ccc(Cl)s1,MIC,Staphylococcus aureus,32 µg/mL
same,MIC,[4],0.25 µg/mL
same,MIC,[5],0.08 µg/mL
same,MIC,[6],0.08 µg/mL
same,MIC,[7],0.08 µg/mL
same,MIC,[8],0.25 µg/mL
same,MIC,[9],32 µg/mL
same,MIC,Escherichia coli,256 µg/mL
same,MIC,[10],4 µg/mL
CCN(CC)CCOc1c(C(=O)OC)c2c3c(oc2c2ccccc12)C(=O)c1ccccc1C3=O,MIC50,[11],0.19 µg/mL
Oc1ccc(-c2nnc(S)o2)cc1,selectivity ratio,[2],39.6
same,MIC,[3],0.6 µg/mL
CC(=O)N1N=C(c2ccc3oc(-c4ccc(O)cc4)nc3c2)CC1c1cccs1 (configuration not stated),IC50,[12],32.5 µg/mL
same,MIC,[3],0.8 µg/mL
Cc1nc(C)c(-c2nnc(S)o2)s1,IC50,[1],21.7 µg/mL
same,MIC,[3],1.3 µg/mL
CC(=O)N1/C(=C/c2ccc(NC(C)C)cc2)C(=O)c2ccccc21,CC50,[13],19 µM
same,MIC90,[3],> 20 µM
same,MIC99,[3],> 20 µM
CC(=O)N1/C(=C/c2cccc(-c3cnc4ccccc4c3)c2)C(=O)c2ccccc21,CC50,[13],14 µM
same,MIC90,[3],2.65 µM
same,MIC99,[3],3.13 µM
Cc1cc(O)n2nc(Nc3ccc(Cl)c(Cl)c3)c(C(N)=O)c2n1,MIC,[14],6.25 µg/mL
same,IC50 at 72 h,[15],29 µg/mL
CC(=O)N1N=C(c2ccc3oc(NC(=O)CCl)nc3c2)CC1c1cccs1 (configuration not stated),IC50,[12],> 62.5 µg/mL
same,MIC,[3],6.25 µg/mL
O=C(OCC(F)(F)F)c1ccsc1NC(=O)[C@@H]1CCCN1,GI50,MCF7,89.7 µg/mL
same,selectivity ratio,[16],13.3
same,GI50,[17],> 250 µg/mL
same,selectivity ratio,[18],83
same,selectivity ratio,[19],> 231
same,GI50,HeLa,109 µg/mL
same,selectivity ratio,[20],10.9
same,selectivity ratio,[21],101
same,selectivity ratio,[22],> 30.4
same,MIC,[23],1.08 µg/mL
same,MIC,[24],8.23 µg/mL
Cc1ccc(NC(=O)c2c(Nc3ccc(Cl)cc3)nn3c(O)cc(C)nc23)cc1,MIC,[14],3.12 µg/mL
same,IC50 at 72 h,[15],21 µg/mL
C=CCOC(=O)c1ccsc1NC(=O)[C@@H]1CCCN1,GI50,MCF7,96.6 µg/mL
same,selectivity ratio,[16],4.08
same,GI50,[17],149 µg/mL
same,selectivity ratio,[18],47.6
same,selectivity ratio,[19],73.3
same,GI50,HeLa,94.9 µg/mL
same,selectivity ratio,[20],4.16
same,selectivity ratio,[21],46.7
same,selectivity ratio,[22],6.41
same,MIC,[23],2.03 µg/mL
same,MIC,[24],23.2 µg/mL
CC(=O)N1/C(=C/c2ccc(-c3ccc(C)cc3)cc2)C(=O)c2ccccc21,MIC90,[3],2.71 µM
same,MIC99,[3],4.37 µM
same,MIC,[25],14.8 µM
CC(=O)N1/C(=C/c2ccc(-c3ccccc3)cc2)C(=O)c2ccccc21,MIC90,[3],1.32 µM
same,MIC99,[3],2.29 µM
same,MIC,[25],12.3 µM
CC(=O)N1/C(=C/c2cccc(-c3ccc(Cl)cc3)c2)C(=O)c2ccccc21,CC50,[13],4 µM
same,MIC90,[3],6.44 µM
same,MIC99,[3],7.85 µM
Sc1nnc(-c2cc3ccccc3[nH]2)o1,IC50,[1],21.6 µg/mL
same,selectivity ratio,[2],16.6
same,MIC,[3],1.3 µg/mL
COc1ccccc1NC(=O)c1c(Nc2cccc(C)c2)nn2c(O)cc(C)nc12,MIC,[14],3.12 µg/mL
same,IC50 at 72 h,[15],21.3 µg/mL
